Reference: ChEMBL document CHEMBL1129611, “Vesamicol receptor mapping of brain cholinergic neurons with radioiodine-labeled positional isomers of benzovesamicol” (J Med Chem, 1996)
Values belong to the compound of their own block, whether it stands above or below them.

Legend:
[1] = Tissue distribution of [125I]- labelled compound in mice atria in 0.5 hr; format: functional
[2] = Tissue distribution of [125I]- labelled compound in mice atria in 24 hours; format: functional
[3] = Tissue distribution of [125I]- labelled compound in mice atria in 4 hours; format: functional
[4] = Tissue distribution of [125I]- labelled compound in mice blood in 0.5 hours; format: functional, tissue-based
[5] = Tissue distribution of [125I]- labelled compound in mice blood in 24 hours; format: functional, tissue-based
[6] = species: Mus musculus; experiment: (§1) Tissue distribution of [125I]- labelled compound in mice blood in 4 hours; format: ADME, organism-based; conditions: in vivo
[7] = as §1; format: functional, tissue-based
[8] = Tissue distribution of [125I]- labelled compound in mice cerebellum in 0.5 hr; format: functional, tissue-based
[9] = Tissue distribution of [125I]- labelled compound in mice ventricles in 0.5 hr; format: functional
[10] = Tissue distribution of [125I]- labelled compound in mice ventricles in 4 hours; format: functional
[11] = Tissue distribution of [125I]- labelled compound in mice […] in 24 hours; format: functional
[12] = Tissue distribution of [125I]- labelled compound in mice […] in 4 hours; format: functional
[13] = Tissue distribution of [125I]- labelled compound in mice liver in 0.5 hr; format: functional, tissue-based
[14] = Tissue distribution of [125I]- labelled compound in mice liver in 24 hours; format: functional, tissue-based
[15] = Tissue distribution of [125I]- labelled compound in mice liver in 4 hours; format: functional, tissue-based
[16] = Tissue distribution of [125I]- labelled compound in mice lung in 0.5 hr; format: functional, tissue-based
[17] = Tissue distribution of [125I]- labelled compound in mice lung in 24 hours; format: functional, tissue-based
[18] = Tissue distribution of [125I]- labelled compound in mice lung in 4 hours; format: functional, tissue-based
[19] = Tissue distribution of [125I]- labelled compound in mice striatum in 0.5 hours; format: functional, tissue-based
[20] = Tissue distribution of [125I]- labelled compound in mice striatum in 24 hours; format: functional, tissue-based
[21] = Tissue distribution of [125I]- labelled compound in mice striatum in 4 hours; format: functional, tissue-based
[22] = Tissue distribution of [125I]- labelled compound in mice ventricle in 24 hours; format: functional
[23] = Tissue distribution of [125I]- labelled compound in mice cerebellum in 24 hours; format: functional, tissue-based
[24] = Tissue distribution of [125I]- labelled compound in mice cerebellum in 4 hours; format: functional, tissue-based
[25] = Tissue distribution of [125I]- labelled compound in mice cortex in 0.5 hours; format: functional, tissue-based
[26] = Tissue distribution of [125I]- labelled compound in mice cortex in 24 hours; format: functional, tissue-based
[27] = Tissue distribution of [125I]- labelled compound in mice cortex in 4 hours; format: functional, tissue-based
[28] = Tissue distribution of [125I]- labelled compound in mice hippocampus in 0.5 hours; format: functional, tissue-based
[29] = Tissue distribution of [125I]- labelled compound in mice hippocampus in 24 hours; format: functional, tissue-based
[30] = Tissue distribution of [125I]- labelled compound in mice hippocampus in 4 hours; format: functional, tissue-based
[31] = Tissue distribution of [125I]- labelled compound in mice […] in 0.5 hours; format: functional
[32] = Tissue distribution of [125I]- labelled compound in mice latria in 0.5 hr; format: functional

Dose/g [6]: 0.47%
Structure (SMILES): O[C@@H]1Cc2cc(I)ccc2C[C@H]1N1CCC(c2ccccc2)CC1
Dose/g [1]: 4.37%
Dose/g [2]: 0.77%
Dose/g [3]: 2.45%
Dose/g [4]: 1.13%
Dose/g [5]: 0.09%
Dose/g [7]: 0.47%
Dose/g [8]: 2.06%
Dose/g [9]: 3.29%
Dose/g [10]: 1.77%
Dose/g [11]: 1.35%
Dose/g [12]: 1.42%
Dose/g [13]: 19.3%
Dose/g [14]: 6.48%
Dose/g [15]: 12.7%
Dose/g [16]: 13.1%
Dose/g [17]: 1.74%
Dose/g [18]: 5.86%
Dose/g [19]: 2.34%
Dose/g [20]: 2.32%
Dose/g [21]: 1.96%
Dose/g [22]: 0.27%
Dose/g [23]: 1.06%
Dose/g [24]: 1.23%
Dose/g [25]: 2.32%
Dose/g [26]: 1.74%
Dose/g [27]: 1.62%
Dose/g [28]: 1.99%
Dose/g [29]: 1.48%
Dose/g [30]: 1.27%
Dose/g [31]: 2.16%

Structure (SMILES): O[C@@H]1Cc2ccccc2C[C@H]1N1CCC(c2ccc(I)cc2)CC1
Dose/g [3]: 1.35%
Dose/g [4]: 1.85%
Dose/g [7]: 0.66%
Dose/g [8]: 2.33%
Dose/g [9]: 2.9%
Dose/g [10]: 1.88%
Dose/g [12]: 0.28%
Dose/g [32]: 3.03%
Dose/g [13]: 15.4%
Dose/g [15]: 9.12%
Dose/g [16]: 8.86%
Dose/g [18]: 2.95%
Dose/g [19]: 2.68%
Dose/g [21]: 0.33%
Dose/g [24]: 0.28%
Dose/g [25]: 3.01%
Dose/g [27]: 0.32%
Dose/g [28]: 2.91%
Dose/g [30]: 0.31%
Dose/g [31]: 2.73%

Structure (SMILES): O[C@@H]1Cc2ccc(I)cc2C[C@H]1N1CCC(c2ccccc2)CC1
Dose/g [2]: 0.1%
Dose/g [3]: 0.97%
Dose/g [4]: 1.06%
Dose/g [5]: 0.05%
Dose/g [7]: 0.51%
Dose/g [8]: 2.05%
Dose/g [9]: 1.34%
Dose/g [10]: 0.53%
Dose/g [11]: 0.1%
Dose/g [12]: 0.68%
Dose/g [32]: 2.09%
Dose/g [13]: 18%
Dose/g [14]: 0.88%
Dose/g [15]: 6.33%
Dose/g [16]: 3.39%
Dose/g [17]: 0.1%
Dose/g [18]: 0.89%
Dose/g [19]: 3.9%
Dose/g [20]: 0.76%
Dose/g [21]: 3.07%
Dose/g [22]: 0.1%
Dose/g [23]: 0.05%
Dose/g [24]: 0.29%
Dose/g [25]: 2.99%
Dose/g [26]: 0.22%
Dose/g [27]: 1.28%
Dose/g [28]: 2.73%
Dose/g [29]: 0.16%
Dose/g [30]: 1.03%
Dose/g [31]: 2.51%

Structure (SMILES): O[C@@H]1Cc2cccc(I)c2C[C@H]1N1CCC(c2ccccc2)CC1
Dose/g [2]: 0.82%
Dose/g [3]: 1.43%
Dose/g [4]: 0.82%
Dose/g [5]: 0.04%
Dose/g [7]: 0.53%
Dose/g [8]: 1.28%
Dose/g [9]: 1.27%
Dose/g [10]: 0.31%
Dose/g [11]: 0.42%
Dose/g [12]: 0.61%
Dose/g [32]: 1.73%
Dose/g [13]: 11%
Dose/g [14]: 0.89%
Dose/g [15]: 5.92%
Dose/g [16]: 7.57%
Dose/g [17]: 0.09%
Dose/g [18]: 1.11%
Dose/g [19]: 3.81%
Dose/g [20]: 2.2%
Dose/g [21]: 3.3%
Dose/g [22]: 0.06%
Dose/g [23]: 0.05%
Dose/g [24]: 0.21%
Dose/g [25]: 2.29%
Dose/g [26]: 0.88%
Dose/g [27]: 1.17%
Dose/g [28]: 2.09%
Dose/g [29]: 0.71%
Dose/g [30]: 1.06%
Dose/g [31]: 1.69%

Structure (SMILES): O[C@@H]1Cc2c(I)cccc2C[C@H]1N1CCC(c2ccccc2)CC1
Dose/g [3]: 0.34%
Dose/g [4]: 1%
Dose/g [7]: 0.19%
Dose/g [8]: 1.22%
Dose/g [9]: 1.25%
Dose/g [10]: 0.23%
Dose/g [32]: 1.64%
Dose/g [19]: 1.64%
Dose/g [21]: 0.12%
Dose/g [24]: 0.08%
Dose/g [25]: 1.53%
Dose/g [27]: 0.1%
